Data taken from patent US4997926A, “Deaminase-stable anti-retroviral 2-halo-2',3'-dideoxy” (Scripps Clinic and Research Foundation, priority 1987, dated 1991).
Where two headings read alike, the source gives them in different places.

Assays:
[1] = biological target: T1, calf intestinal adenosine deaminase (Bos taurus, UniProt P56658); experiment: Metabolism by adenosine deaminase (spectrophotometric deamination, Lineweaver-Burke); type: biochemical
T1 sequence (P56658 1-363): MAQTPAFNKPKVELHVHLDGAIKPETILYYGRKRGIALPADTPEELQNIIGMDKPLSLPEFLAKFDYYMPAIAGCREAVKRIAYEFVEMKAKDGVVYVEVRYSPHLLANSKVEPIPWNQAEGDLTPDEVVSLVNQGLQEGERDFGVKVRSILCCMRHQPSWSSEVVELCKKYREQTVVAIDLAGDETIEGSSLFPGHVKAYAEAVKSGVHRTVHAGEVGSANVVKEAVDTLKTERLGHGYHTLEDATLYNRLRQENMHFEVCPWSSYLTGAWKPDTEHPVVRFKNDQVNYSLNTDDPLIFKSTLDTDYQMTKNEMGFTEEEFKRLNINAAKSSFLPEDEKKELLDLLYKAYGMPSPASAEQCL
Protocol: ^1 The indicated nucleosides at concentrations from 5-200 uM were
incubated at 18-20° C. with 0.01 EU/ml calf intestinal adenosine
deaminase in 10 mM sodium phosphate, pH 7.5. Deamination was monitored
spectrophotometrically at 265 nanometers (nm) and 250 nm, as described
The individual nucleosides, at concentrations from 5-200 uM in 10 mM sodium phosphate, pH 7.5, were incubated at 18-20 degrees C. with 0.01 EU/ml calf intestinal adenosine deaminase. The change in the optical density at 265 nm and 250 nm was monitored spectrophotometrically.

in vitro = in vitro ADME, human; conditions: human, cem cell culture medium
Protocol: (§1) Under the same condition, only about 2 percent of [2',3'-^3 H]-2'3'-dideoxyadenosine remained in the medium after 4 hours culture.
(§2) ^1 Human CEM T lymphoblasts at a density of 2 × 10^7
(§3) cells/ml were incubated for 4 hours at 37 degrees C. with either 3 uM
(§4) [8^3 H2-chloro- 2',3dideoxyadenosine, or 2 uM [2',3^3
(§5) H2',3dideoxyadenosine or 2 uM [2',3^3 H2',3dideoxyinosine. Then the
(§6) dideoxynucleosides in the cultures were quantitated after separation by
(§7) HPLC. In these studies, the intracellular dideoxynucleotide content after
(§8) The human T lymphoblastoid cell line, CCRF-CEM, and mutants deficient in either deoxycytidine kinase (clone AraC-8D), or deoxycytidine kinase plus adenosine kinase (clone AraC-8DM10-5) were obtained and propagated as described previously [Foley et al., (1965) Cancer, 18:552-529 and Hershfield et al., (1982) J. Biol. Chem., 257:6380-6386]. For metabolic studies, the cells were cultured in RPMI 1640 medium supplemented with 2 mM L-glutamine and 10 percent fetal bovine serum at a density of 2×10^7 cells/ml in the presence of radiolabelled dideoxynucleosides, as indicated earlier. Some cultures were pre-incubatedfor 30 minutes either with 5 uM 2'-deoxycoformycin or 50 uM coformycin. After 4 hours of incubation the cells were harvested by centrifugation.
(§9) The radioactive compounds in the culture medium were fractionated by thin layer chromatography. Ten microliter (ul) aliquots of medium were spotted directly on cellulose plates and developed with 1 M ammonium acetate pH 7.4. […] The respective spots were cut out and radioactivity was determined by liquid scintillation spectrometry. The identities of the spots were also confirmed by cochromatography of the radioactive counts with authentic compounds on a C18 uBondapak column, that was eluted as described above.

[2] = system: HIV in deoxycytidine kinase-deficient CEM variant; experiment: HIV p24 (gag) antigen in deoxycytidine kinase deficient CEM variant; type: cell-based
Excerpt: Open symbols show the effects of the respective same dideoxynucelosides on HIV replication in a deoxycytidine kinase-deficient CEM variant.
HIV infection of the CEM T lymphoblastoid cell line was monitored by the release of the HIV p24 (gag) protein into the medium, exactly as described previously [Cleveland et al. (1987) J. Clin. Microbiol., 25:416-420 and Fishbein et al. (1981) Biochem. Med., 26:377-386]. The growth inhibiting effects of the nucleosides toward CEM lymphoblasts, and toward the deoxycytidine kinase deficient mutant, were also monitored as described earlier [Carson et al. (1980) Proc. Natl. Acad. Sci. USA, 77:6865-6869].

[3] = system: HIV in PHA-stimulated lymphocytes; experiment: HIV-infected PHA-stimulated lymphocytes, antigen ELISA of supernate, positive cultures; type: cell-based; conditions: 10 uM, ten cultures, ELISA OD490
Protocol: The activities of 2-halo-2',3'-dideoxyadenosine (2-F-,2-Cl- or 2-Br-ddA) derivatives were compared to those of 2-fluoro- and 2-chloro-2',3'-dideoxyinosine (2-F- and 2-Cl-ddI) and 2',3-dideoxyadenosine (ddA) against HIV-infected, antigen ELISA assay described herein.
The PHA-stimulated lymphocytes were suspended in media containing cell-free HIV, and were incubated overnight (about 18 hours). The cells were thereafter pelleted resuspended in a growth medium as pharmacologically acceptable carrier containing one of the above compounds at a 10 uM concentration, or with no added compound as a control, and plated at 10^5 cells per microculture; the medium was also supplemented with interleukin-2. The release of virus into the supernate was measured by ELISA at 4, 8 and 12 days, post-inoculation. Each microculture plate also contained ten virus-free cultures that served as further controls. Ten cell cultures were used for each compound.
Cultures were scored positive if the optical density in the ELISA (OD490) was greater than two standard deviations above the readings for the virus-free cultures. This method is adapted from that of McDougal et al. (1985) J. Immunol. 135:3151.

HIV in MDM cells = experiment: Synthesis of HIV p24 (gag) antigen in monocyte derived macrophages (MDM), 3-day assay; type: cell-based; conditions: 0.1-100 uM
Excerpt: The ability of AZT, ddC and ddA to inhibit synthesis of the p24 (gag) antigen of HIV in CEM and MDM cells was also examined. For CEM cells, the results for all three compounds were similar to those discussed in Mitsuya et al. (1987) Nature, 325:773-778 with ddC providing the most inhibitory effect at the lowest concentration, followed by AZT, followed by ddA in a 3-day assay.

HIV in ATH8 cells = conditions: HIV-infected ATH8 cells; read-out: Concentration providing a 50 percent protection level against the cytopathic effect of HIV; cited from earlier work
[4] = acid conditions; cited from earlier work
CEM T lymphoblasts = experiment: in vitro; type: in vitro ADME, human
Protocol: as §1, §2, §3, §4, §5, §6, §7, §8, §9

| SMILES | Relative Efficiency (ratio of Vmax/Km) ([1]; relative efficiency of deamination) | remaining at 4 h, 2 µM (in vitro) [%] | protection from HIV infection, p24 (gag) antigen detection [2] | positive cultures on day 4 [3] | positive cultures on day 8 [3] [%] | positive cultures on day 12 [3] [%] | inhibition of p24 (gag) production from MDM cells (HIV in MDM cells) | EC50 (HIV in ATH8 cells) [nM] | rate of acid hydrolysis relative to adenosine [4] | Relative Efficiency (ratio of Vmax/Km) [1] | Catabolism (CEM T lymphoblasts; Addition none, 4 hours, 37 degrees C., 2-3 uM) [pmols/hr 10^8 cells] | deamination by CEM cells (CEM T lymphoblasts; radiolabelled compound, medium of CEM cell cultures) |
| --- | --- | --- | --- | --- | --- | --- | --- | --- | --- | --- | --- | --- |
| Nc1ncnc2c1ncn2[C@H]1CC[C@@H](CO)O1 [2',3'-dideoxyadenosine, reference compound] | 3.52 | ~2 | equivalent anti-HIV activity | no positives | 100 | 100 | none of those compounds provided any inhibition | 2700 | about 40,000 times faster | – | – | – |
| Nc1nc(Cl)nc2c1ncn2[C@H]1CC[C@@H](CO)O1 [2-chloro-2',3'-dideoxyadenosine] | – | – | – | – | – | – | – | – | – | 0.04 | 40 | did not significantly deaminate |
